Measurements as given in paper PMC7330904 (ACS Omega, 2020).

Tests used:
calf thymus DNA (CT-DNA) = settings: cited from earlier work
Hep-G2 cells = assay: APOPercentage apoptosis assay, Hep-G2; format: cell-based, human; settings: Hep-G2, 24 h, IC50 of complexes, flow cytometry, vs untreated cells

SMILES: Nc1ccc2cc3ccc(N)cc3nc2c1 [Proflavine]
- binding constant Kb of known DNA intercalator (calf thymus DNA (CT-DNA)): 2.32 × 10^4 M^–1

SMILES: CC[n+]1c(-c2ccccc2)c2cc(N)ccc2c2ccc(N)cc21 [ethidium bromide]
- binding constant Kb of known DNA intercalator (calf thymus DNA (CT-DNA)): 1.4 × 10^6 M^–1

SMILES: COc1cccc2c1C(=O)c1c(O)c3c(c(O)c1C2=O)C[C@@](O)(C(=O)CO)C[C@@H]3O[C@H]1C[C@H](N)[C@@H](O)[C@H](C)O1 [Epirubicin]
- binding constant Kb of known DNA intercalator (calf thymus DNA (CT-DNA)): 3.4 × 10^4 M^–1

SMILES: N.N.[Cl][Pt][Cl] [Cisplatin]
- induction of apoptosis (APOPercentage dye uptake) (Hep-G2 cells): but not Hep-G2 cells
